The text below walks through data of patent US5801035A, “L-amino acid oxidase” (Novo Nordisk A/S, priority 1993, dated 1998).

In this assay the test system is L-amino acid oxidase. The experiment in a line: Substrate specificity: specific activity and Km (Lineweaver-Burk) with various L-amino acids, H2O2 detected with ABTS and CiP. It is filed as biochemical, Trichoderma harzianum. As to conditions: phosphate buffer pH 8.5, room temperature; for Km: Lineweaver-Burk plots; for Specific Activity: 20 minutes. As for the experimental part:
The specific activity of the purified L-amino acid oxidase was 16 U/mg determined in a 50 mM phosphate buffer at pH 8.5, 20° C. with 1 mM L-arginine as substrate. One unit of enzyme will form 1 μmole of hydrogen peroxide per minute. The amount of protein is quantified assuming that a solution of the L-amino acid oxidase having an optical density of 1 determined at 280 nm contains 1 mg of protein/ml. The L-amino acid oxidase yield was approx. 50 mg of pure protein per litre of culture medium.
In the following characterization experiments, detection of H2 O2 was carried out using a Coprinus cinereus peroxidase (CiP), obtained according to WO 92/16634, at a level of 4.5 PODU/ml, and 0.4 mM ABTS in phosphate buffer at pH 7.0. The hydrogen peroxide concentrations were determined relative to a freshly prepared hydrogen peroxide standard solution.
The activity of the L-amino acid oxidase was determined with various L-amino acids as substrates. The L-amino acid oxidase was incubated with substrate in a phosphate buffer at pH 8.5 and room temperature for 20 minutes. Generated hydrogen peroxide was detected using ABTS and CiP as described above. The specific activity was determined as described in Example 2 above.
Km values for the various substrates were determined by plotting values of 1/v versus 1/s (Lineweaver-Burk plots).

Consider `CC(C)C[C@H](N)C(=O)O` [L-leucine], for which the Km – broadly, the substrate concentration at which the rate is half of its maximum – was 40 mM. Besides, the “Specific Activity” value (Substrate Conc. 80 (m/M)) is on record as 16 U/mg.

As to `N[C@@H](Cc1ccccc1)C(=O)O` [L-phenylalanine], the Km amounted to 25 mM. Moreover, the “Specific Activity” value (Substrate Conc. 80 (m/M)) was 25 U/mg.

`N=C(N)NCCC[C@H](N)C(=O)O` [L-arginine]: the Km came to 1.2 mM. In addition, the “Specific Activity” value (Substrate Conc. 1 (m/M)) amounted to 16 U/mg. The “Specific Activity” value (Substrate Conc. 10 (m/M)) amounted to 30 U/mg.

`NC(=O)C[C@H](N)C(=O)O` [L-asparagine]: the Km came out at 20 mM. Further, the “Specific Activity” value (Substrate Conc. 80 (m/M)) came to 7 U/mg.

In the case of `NCCCC[C@H](N)C(=O)O` [L-lysine], the Km was determined as 0.2 mM. In addition, the “Specific Activity” value (Substrate Conc. 1 (m/M)) was 7 U/mg.

In the case of `CSCC[C@H](N)C(=O)O` [L-methionine], the Km was found to be 15 mM. Besides, the “Specific Activity” value (Substrate Conc. 80 (m/M)) worked out at 8 U/mg.
